According to patent US9994594B2, “Inhibitors of arginase and their therapeutic applications” (MARS, INCORPORATED, priority 2010, dated 2018):
Counter-ions that a name gives are not always drawn. Like-named read-outs stand apart in the source and are kept apart here.

Experiments:
MDSC = conditions: tumor bearing mice; cited from earlier work
central airways = conditions: murine chronic model; cited from earlier work
[1] = spontaneously hypertensive animals; cited from earlier work
bacterial arginase = conditions: H. pylori; cited from earlier work
penile erectile response = assay: Erectile dysfunction efficacy model: penile erectile response in vivo
Procedure: As described hereinabove, the compounds according to the invention are useful in the treatment and prevention of a variety of disorders and conditions that are affected by levels of nitric oxide (NO) regulated, in part, by arginase enzymes. The compounds are assessed for efficacy in such treatment and prevention by their performances in standardized in vivo tests. In vivo models to assess efficacy are developed for this purpose as described below.
The inventive compounds are candidate therapeutics for treating ED, as assessed by measurements of penile erectile response according to a protocol described by Wingard C, Fulton J, and Husain S, J Sex Med 4: 348-363, 2007.

[2] = system: experimental autoimmune encephalomyelitis (EAE); conditions: compared with control animals; cited from earlier work
human arginase I (ARG I) = biological target: T1, human arginase I (ARG I) (Homo sapiens, UniProt P05089); assay: Inhibition of arginase I, spectrophotometric urea assay at 530 nm; format: biochemical; conditions: read-out: Potency (ARG I)
T1 sequence (P05089 1-322): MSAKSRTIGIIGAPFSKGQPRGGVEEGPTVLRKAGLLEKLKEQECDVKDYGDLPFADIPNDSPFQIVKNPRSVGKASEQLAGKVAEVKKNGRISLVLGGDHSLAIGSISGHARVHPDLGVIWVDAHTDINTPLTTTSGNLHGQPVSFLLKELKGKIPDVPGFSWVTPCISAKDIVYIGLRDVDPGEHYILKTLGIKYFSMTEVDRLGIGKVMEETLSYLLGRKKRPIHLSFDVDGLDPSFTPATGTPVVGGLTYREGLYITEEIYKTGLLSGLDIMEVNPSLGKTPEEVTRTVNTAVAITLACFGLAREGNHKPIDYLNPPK
Outline: (§1)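 IC50 was derived by regression of OD530 normalized to uninhibited-enzyme controls against log concentration. Urea from 60-min, 37 °C turnover of L-arginine with manganese sulfate was detected after acid o-phthaldialdehyde/primaquine quench and 10 min colour development. Arginase I and II came from 100 ng/ml stocks in pH 7.4 phosphate with ovalbumin.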

arginase II (ARG II) = biological target: T2, arginase II (ARG II) (Homo sapiens, UniProt P78540); assay: Inhibition of arginase II, spectrophotometric urea assay at 530 nm; format: biochemical
T2 sequence (P78540 23-354): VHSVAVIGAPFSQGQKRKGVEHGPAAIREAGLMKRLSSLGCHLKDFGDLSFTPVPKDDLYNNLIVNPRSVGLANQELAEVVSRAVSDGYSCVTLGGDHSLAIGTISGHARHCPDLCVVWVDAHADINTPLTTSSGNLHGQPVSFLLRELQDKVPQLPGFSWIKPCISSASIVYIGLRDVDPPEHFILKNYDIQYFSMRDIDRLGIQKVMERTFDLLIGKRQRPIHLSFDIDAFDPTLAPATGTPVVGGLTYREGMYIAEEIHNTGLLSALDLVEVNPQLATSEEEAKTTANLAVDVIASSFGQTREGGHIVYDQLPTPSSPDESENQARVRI
Outline: as §1

[3] = Formula I compounds, Table 2, read-out: Potency (ARG II)
[4] = Formula II compounds, Table 2-A
[5] = Formula II compounds, Table 2-A, read-out: Potency (ARG)

For `O=c1[nH]cc(F)c(=O)[nH]1` [5-Fluorouracil], the MDSC immunesuppression (MDSC) is listed as “eliminates MDSC immunesuppression” and the tumor growth (MDSC) is listed as “delayed tumor growth”.

For `Nc1ccn([C@@H]2O[C@H](CO)[C@@H](O)C2(F)F)c(=O)n1` [gemcitabine], the MDSC immunesuppression (MDSC) is given as “eliminates MDSC immunesuppression” and the tumor growth (MDSC) is given as “delayed tumor growth”.

In the case of `N[C@@H](CSCCB(O)O)C(=O)O` [S-(2-boronoethyl)-L-cysteine], the “methacholine induced responsiveness of the central airways” value (central airways) is given as “attenuated”.

For `N=C(NO)NCC[C@H](N)C(=O)O` [nor-NOHA, N^ω-hydroxy-nor-L-arginine], the blood pressure [1] is listed as “lowered blood pressure” and the “vascular response of resistance vessels to blood flow and pressure” value [1] is listed as “improved the vascular response of resistance vessels to blood flow and pressure”.

In the case of `NC(=NCCC[C@H](N)C(=O)O)NO` [NOHA], the “CD3 expression on T-cells” value (bacterial arginase) is listed as “reestablished CD3 expression on T-cells” and the “production of NO by macrophages” value (bacterial arginase) is listed as “enhanced production of NO by macrophages”.

In the case of `N[C@@](CCCCB(O)O)(CCN1CCCCC1)C(=O)O` [Enantiomer of Ex. 13], the “Effect: increased erectile response relative to baseline” value (penile erectile response; @ 2.5 V stimulation) is reported as 0 (0 <10%) and the “eliciting erectile responses in vivo” value (penile erectile response; in words) is reported as “is not”.

For `NC(CCCCB(O)O)C(=O)O` (stereo not shown) [ABH, amino-6-boronohexanoic acid], the “severity of EAE” value [2] is listed as “much milder form of EAE than in control animals”.

`CNC(CCCCB(O)O)(CC[C@@H]1CCCN1)C(=O)O` (stereo partly drawn) [compound 144, 6-borono-2-(methylamino)-2-(2-((S)-pyrrolidin-2-yl)ethyl)hexanoic acid dihydrochloride] showed an IC50 (human arginase I (ARG I); Formula I compounds, Table 2) of 0.1 to 250 nM and an IC50 (arginase II (ARG II); [3]) of 0.1 to 250 nM.

`N[C@](CCCCB(O)O)(CCN1CCC[C@H]1CO)C(=O)O` [compound 10, (R)-2-amino-6-borono-2-(2-((S)-2-(hydroxymethyl)pyrrolidin-1-yl)ethyl)hexanoic acid] showed an IC50 (human arginase I (ARG I); Formula I compounds, Table 2) of 0.1 to 250 nM and an IC50 (arginase II (ARG II); [3]) of 251 to 1000 nM.

With `NC(CCCCB(O)O)(CCN1CCC(F)(F)C1)C(=O)O` (stereo not shown) [compound 44, 2-amino-6-borono-2-(2-(3,3-difluoropyrrolidin-1-yl)ethyl)hexanoic acid dihydrochloride] the IC50 (human arginase I (ARG I); Formula I compounds, Table 2) was greater than 5000 nM and the IC50 (arginase II (ARG II); [3]) was greater than 5000 nM.

Work on `CC(C)CN[C@H]1C[C@@H](C(N)(CCCCB(O)O)C(=O)O)C1` (stereo partly drawn) [Example 83-A, cis-2-amino-6-borono-2-(3-(isobutylamino)cyclobutyl)hexanoic acid dihydrochloride] yielded an IC50 (human arginase I (ARG I); [4]) of 0.1 to 250 nM and an IC50 (arginase II (ARG II); [5]) of 0.1 to 250 nM.

With `NC(CCCCB(O)O)(C(=O)O)C1CNC1` (stereo not shown) [18-A, 2-amino-2-(azetidin-3-yl)-6-boronohexanoic acid dihydrochloride] the IC50 (human arginase I (ARG I); [4]) was 2000 to 5000 nM and the IC50 (arginase II (ARG II); [5]) was 2000 to 5000 nM.

Compound `NC(CCCCB(O)O)(C(=O)O)[C@H]1CCN(Cc2ccccc2)C1` (stereo partly drawn) [Example 68-A, 2-amino-2-((S)-1-benzylpyrrolidin-3-yl)-6-boronohexanoic acid dihydrochloride] has an IC50 (human arginase I (ARG I); [4]) of 251 to 1000 nM and an IC50 (arginase II (ARG II); [5]) of 251 to 1000 nM.

`NCCN(CCC(N)(CCCCB(O)O)C(=O)O)Cc1ccccc1` (stereo not shown) [compound 73, 2-amino-2-(2-((2-aminoethyl)(benzyl)amino)ethyl)-6-boronohexanoic acid trihydrochloride] showed an IC50 (human arginase I (ARG I); Formula I compounds, Table 2) of 0.1 to 250 nM and an IC50 (arginase II (ARG II); [3]) of 251 to 1000 nM.

Work on `NC(CCCCB(O)O)(C(=O)O)[C@H]1CC[C@@H](C(=O)c2ccc(Cl)cc2)CC1` (stereo partly drawn) [Example 84-A, cis-2-Amino-6-borono-2-[4-(4-Chlorobenzoyl)-cyclohexyl]hexanoic acid hydrochloride] yielded an IC50 (human arginase I (ARG I); [4]) greater than 5000 nM and an IC50 (arginase II (ARG II); [5]) greater than 5000 nM.
